Data: PubChem BioAssay (NCI)
Where “and” joins values, the source holds several entries; their conditions need not be identical. Equal entries are not always repeated.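 Step 1: Grow cells in 96-well plates. Step 2: Expose to compound for 48 hours at 5 concentrations. Step 3: Interpolate endpoints linearly; if unreached, use highest concentration. GI50 = concentration required for 50% inhibition of growth. TGI: total growth inhibition.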

How the values were obtained:
Test in all cases: NCI-60 cell line screen, 48 h
LOX IMVI melanoma = tested on: LOX IMVI melanoma
SK-MEL-28 melanoma = tested on: SK-MEL-28 melanoma
MDA-MB-231 breast = tested on: MDA-MB-231 breast
HCT-15 colon = tested on: HCT-15 colon
M14 melanoma = tested on: M14 melanoma
HT29 colon = tested on: HT29 colon
OVCAR-4 ovarian = tested on: OVCAR-4 ovarian
SNB-19 CNS = tested on: SNB-19 CNS
NCI-H23 lung = tested on: NCI-H23 lung
NCI-H226 lung = tested on: NCI-H226 lung

Compound	TGI (LOX IMVI melanoma)	TGI (SK-MEL-28 melanoma)	TGI (MDA-MB-231 breast)	TGI (HCT-15 colon)	TGI (M14 melanoma)	TGI (HT29 colon)	TGI (OVCAR-4 ovarian)	TGI (SNB-19 CNS)	TGI (NCI-H23 lung)	TGI (NCI-H226 lung)	GI50 (NCI-H23 lung)	GI50 (NCI-H226 lung)	GI50 (HT29 colon)
Oc1cccc(-c2cn3cc(Cl)ccc3n2)c1	> 100 µM	> 100 µM	> 100 µM	> 100 µM	> 100 µM	> 100 µM	> 100 µM	> 100 µM	> 100 µM	> 100 µM	–	–	–
CC1=NNC(N)=N/C1=C\C(Sc1ccc(Cl)cc1)c1ccc(Cl)cc1Cl (centres undefined)	> 49.4 µM	55.7 µM	> 52.3 µM	30.4 µM	31.8 µM	14.2 µM	44.6 µM	32.8 µM	29.4 µM	36.2 µM	–	–	–
CC(=O)OC1COC(n2c(N)c(C#N)c(-c3ccccc3)c(C#N)c2=S)C(OC(C)=O)C1OC(C)=O (centres undefined)	79 µM and 76.7 µM	> 100 µM	> 100 µM	> 100 µM	> 100 µM	> 100 µM	> 100 µM	> 100 µM	> 100 µM	> 100 µM	33.1 µM and 73.2 µM	41.6 µM and 89.4 µM	–
COC1OC2COC(c3ccccc3)OC2C(OC(=S)c2ccccc2)C1O (centres undefined)	20.5 µM	> 100 µM	78.1 µM	> 100 µM	> 100 µM	> 100 µM	> 100 µM	> 100 µM	> 100 µM	> 100 µM	–	–	–
O=C(O)CCC(NC(=O)/C(=C/c1ccccc1)NC(=O)c1ccccc1)C(=O)O (centres undefined)	> 100 µM	> 100 µM	> 100 µM	> 100 µM	> 100 µM	> 100 µM	> 100 µM	> 100 µM	> 100 µM	> 100 µM	–	–	–
CC(C)c1cc(C(C)C)c(B(c2ccccc2)c2ccccc2)c(C(C)C)c1Br	> 100 µM	> 100 µM	> 100 µM	> 100 µM	> 100 µM	> 100 µM	> 100 µM	> 100 µM	> 100 µM	> 100 µM	–	–	–
C[C@@H]1CC(=O)[C@@]2(C)[C@](O)(CCC3O[C@]32C)[C@@]12CC(c1ccoc1)OC2=O (some centres undefined)	> 100 µM	> 100 µM	> 100 µM	> 100 µM	> 100 µM	> 100 µM	> 100 µM	> 100 µM	> 100 µM	> 100 µM	–	–	–
S=C1NNC(=S)NN1	0.328 µM	> 1 µM	> 1 µM	> 1 µM	> 1 µM	> 1 µM	> 1 µM	> 1 µM	> 1 µM	> 1 µM	–	–	–
O=C(N(C1=CCCC1)N(c1ccccc1)c1ccccc1)C(F)(F)F	31.5 µM	> 100 µM	34.3 µM	51.8 µM	74.5 µM	42.6 µM	> 100 µM	> 100 µM	> 100 µM	42.3 µM	–	–	–
NS(=O)(=O)c1ccc(NS(=O)(=O)c2ccc(NC(=O)N(c3ccccc3)c3ccccc3)cc2)cc1	> 100 µM	> 100 µM	> 100 µM	> 100 µM	> 100 µM	> 100 µM	> 100 µM	> 100 µM	> 100 µM	> 100 µM	–	–	–
CC(NC1=NCCO1)c1ccco1 (centres undefined)	> 100 µM	> 100 µM	> 100 µM	> 100 µM	> 100 µM	> 100 µM	> 100 µM	> 100 µM	> 100 µM	> 100 µM	–	–	–
Cc1cc(C)c(N)c(CO)c1	> 100 µM	> 100 µM	> 100 µM	> 100 µM	> 100 µM	> 100 µM	> 100 µM	> 100 µM	> 100 µM	1.73 µM and 4.56 µM	–	0.236 µM and 1.26 µM	12.5 µM and 38.2 µM
NC(=O)c1ccc(S(=O)(=NS(=O)(=O)c2ccccc2)c2ccc(C(N)=O)cc2)cc1	> 100 µM	> 100 µM	> 100 µM	> 100 µM	> 100 µM	> 100 µM	> 100 µM	> 100 µM	> 100 µM	> 100 µM	–	–	–
CSC(=N/N=C(\C)c1ccc(S(=O)(=O)N(C)c2ccccc2)cc1)SC	> 100 µM	> 100 µM	> 100 µM	> 100 µM	> 100 µM	> 100 µM	> 100 µM	> 100 µM	> 100 µM	> 100 µM	–	–	–
CCOC(=O)c1sc2[n+](c1C)C(=O)/C(=C/c1ccccc1Cl)S2	19.1 µM	47.3 µM	> 27.8 µM	12.9 µM	> 43.1 µM	28.9 µM	> 100 µM	> 42.7 µM	27.7 µM	23.1 µM	–	–	–
CC(=O)O[C@H]1CC[C@]2(C=O)[C@H]3CC[C@]4(C)[C@@H](C5=CC(=O)OC5)CC[C@]4(O)[C@@H]3CC[C@]2(O)C1	0.933 µM	3.22 µM	3.14 µM	0.455 µM	1.22 µM	1.05 µM	0.35 µM	2.24 µM	0.373 µM	1.97 µM	–	–	–
CC(=O)OCC12C(OC(C)=O)C[C@@H](C)C3(CC(c4ccoc4)OC3=O)C1CCC(OC(C)=O)C21CO1 (some centres undefined)	> 100 µM	> 100 µM	> 100 µM	> 100 µM	> 100 µM	> 100 µM	> 100 µM	> 100 µM	> 100 µM	> 100 µM	–	–	–
